The record followed here is PubChem BioAssay AID1053167 (Broad Institute, 2014).

SMILES strings stand for the structures. “And” between values parts separate entries of the source, which are not always exact repeats. Equal entries are not always repeated. The source made the active and inactive calls. No rule for the calls is given here.

One assay deals with Vaccinia virus infected cells, plate reader read-out. The assay can be described thus: Vaccinia virus infected cells, stage specific inhibitors, dose response, confirmatory, dry powder (AID 1053167).
Settings: not given
In the case of `C[C@@H](O)C#Cc1ccc2c(c1)O[C@@H](CN(C)Cc1ccccc1)[C@@H](C)CN([C@@H](C)CO)S2(=O)=O`, the AC50 is 8730 nM.
As for `C[C@@H](O)C#Cc1ccc2c(c1)O[C@@H](CN(C)Cc1ccc(-c3ccc(Cl)cc3)cc1)[C@@H](C)CN([C@@H](C)CO)S2(=O)=O`, the AC50 was 1210 nM.
In the case of `C[C@H](O)C#Cc1ccc2c(c1)O[C@@H](CN(C)Cc1ccc(-c3ccccc3)cc1)[C@H](C)CN([C@H](C)CO)S2(=O)=O`, the AC50 is > 20000 nM (inactive).
Same read-out and setting: the result for `C[C@H](O)C#Cc1ccc2c(c1)O[C@H](CN(C)Cc1ccc(-c3ccccc3)cc1)[C@@H](C)CN([C@@H](C)CO)S2(=O)=O` reads 5700 nM; that for `COc1cccc(-c2ccc(CN(C)C[C@@H]3Oc4cc(C#C[C@@H](C)O)ccc4S(=O)(=O)N([C@@H](C)CO)C[C@@H]3C)cc2)c1`, 2770 nM; that for `COc1ccccc1-c1ccc(CN(C)C[C@@H]2Oc3cc(C#C[C@@H](C)O)ccc3S(=O)(=O)N([C@@H](C)CO)C[C@@H]2C)cc1`, 2140 nM.
On the same count and under the same terms, with `C[C@H]1CN([C@@H](C)CO)S(=O)(=O)c2ccc(C#CC(C)(C)O)cc2O[C@H]1CN(C)Cc1ccc(-c2ccccc2)cc1` the figure was > 20000 nM (inactive); with `Cc1cccc(-c2ccc(CN(C)C[C@@H]3Oc4cc(C#C[C@@H](C)O)ccc4S(=O)(=O)N([C@@H](C)CO)C[C@@H]3C)cc2)c1`, 1740 nM.
`COc1ccc(-c2ccc3c(c2)O[C@@H](CN(C)Cc2ccc(-c4ccccc4)cc2)[C@@H](C)CN([C@@H](C)CO)S3(=O)=O)cc1`: the AC50 is > 20000 nM (inactive).
The same measure, in the same setting: the result for `C[C@@H](O)C#Cc1ccc2c(c1)O[C@@H](CN(C)Cc1ccc(-c3cccc(Cl)c3)cc1)[C@@H](C)CN([C@@H](C)CO)S2(=O)=O` reads 2560 nM; that for `C[C@@H](O)C#Cc1ccc2c(c1)O[C@@H](CN(C)Cc1ccc(-c3ccccc3Cl)cc1)[C@@H](C)CN([C@@H](C)CO)S2(=O)=O`, 1340 nM; that for `C[C@@H]1CN([C@@H](C)CO)S(=O)(=O)c2ccc(C#C[C@@H](C)O)cc2O[C@@H]1CN(C)Cc1ccc(-c2ccccc2)cc1`, > 20000 nM (inactive).
Regarding `C[C@H](O)C#Cc1ccc2c(c1)O[C@H](CN(C)Cc1ccc(-c3ccccc3)cc1)[C@H](C)CN([C@H](C)CO)S2(=O)=O`, the AC50 was > 20000 nM (inactive).
As to `C[C@@H](O)C#Cc1ccc2c(c1)O[C@@H](CN(C)Cc1ccc(-c3ccccc3)cc1)[C@@H](C)CN([C@@H](C)CO)S2(=O)=O`, the AC50 was 2940 nM and 3900 nM.
On to `C[C@H](O)C#Cc1ccc2c(c1)O[C@H](CN(C)Cc1ccc(-c3ccccc3)cc1)[C@@H](C)CN([C@H](C)CO)S2(=O)=O`, for which the AC50 is > 20000 nM (inactive).
Take `Cc1ccccc1-c1ccc(CN(C)C[C@@H]2Oc3cc(C#C[C@@H](C)O)ccc3S(=O)(=O)N([C@@H](C)CO)C[C@@H]2C)cc1`: the AC50 is 1160 nM.
As for `C[C@@H]1CN([C@H](C)CO)S(=O)(=O)c2ccc(C#C[C@@H](C)O)cc2O[C@H]1CN(C)Cc1ccc(-c2ccccc2)cc1`, the AC50 was 7160 nM.
Regarding `C[C@H]1CN([C@@H](C)CO)S(=O)(=O)c2ccc(-c3ccc(O)cc3)cc2O[C@H]1CN(C)Cc1ccc(-c2ccccc2)cc1`, the AC50 is > 20000 nM (inactive).
`Cc1ccc(-c2ccc(CN(C)C[C@@H]3Oc4cc(C#C[C@@H](C)O)ccc4S(=O)(=O)N([C@@H](C)CO)C[C@@H]3C)cc2)cc1`: the AC50 was 1480 nM.
In the case of `COc1ccc(-c2ccc(CN(C)C[C@@H]3Oc4cc(C#C[C@@H](C)O)ccc4S(=O)(=O)N([C@@H](C)CO)C[C@@H]3C)cc2)cc1`, the AC50 is 2200 nM.

Test system in a further assay: not listed separately
The assay is described as above. The following applies: Vaccinia virus infected cells, plate reader read-out; at 1 µM (top of the series).
`CO[C@H]1CN(C)C(=O)c2ccc(NC(=O)c3ccc(F)cc3)cc2OC[C@H](C)N(C(=O)c2ccc(F)cc2)C[C@@H]1C`: the activity change, negative = inhibition is 0% (inactive).
Same read-out and setting: with `C[C@H](O)C#Cc1ccc2c(c1)O[C@@H](CN(C)Cc1ccc(-c3ccccc3)cc1)[C@H](C)CN([C@@H](C)CO)S2(=O)=O` the figure was 6% (inactive).

Still in this assay, the particulars now being: Vaccinia virus infected cells, plate reader read-out; at 10 µM (top of the series).
For the compound `C[C@@H](O)C#Cc1ccc2c(c1)O[C@@H](CN(C)C(=O)c1ccc(-c3ccccc3)cc1)[C@@H](C)CN([C@@H](C)CO)S2(=O)=O`, the activity change, negative = inhibition is -22% (inactive).
Consider `C[C@H](O)C#Cc1ccc2c(c1)O[C@@H](CN(C)Cc1ccc(-c3ccccc3)cc1)[C@@H](C)CN([C@@H](C)CO)S2(=O)=O`, for which the activity change, negative = inhibition was -4% (inactive).
`C[C@H]1CN([C@@H](C)CO)S(=O)(=O)c2ccc(Br)cc2O[C@H]1CN(C)Cc1ccc(-c2ccccc2)cc1`: the activity change, negative = inhibition was -19% (inactive).
Same read-out and setting: the result for `C[C@@H](O)C#Cc1ccc2c(c1)O[C@@H](CN(C)S(=O)(=O)c1ccc(-c3ccccc3)cc1)[C@@H](C)CN([C@@H](C)CO)S2(=O)=O` reads -14% (inactive).
The same measure, in the same setting: with `C[C@H](O)C#Cc1ccc2c(c1)O[C@@H](CN(C)Cc1ccc(-c3ccccc3)cc1)[C@@H](C)CN([C@H](C)CO)S2(=O)=O` the figure was 1% (inactive).
As to `CNC[C@@H]1Oc2cc(Br)ccc2S(=O)(=O)N([C@@H](C)CO)C[C@@H]1C`, the activity change, negative = inhibition is -1% (inactive).
